Source: ChEMBL document CHEMBL5131495, “Discovery of unique thiazolidinone-conjugated coumarins as novel broad spectrum antibacterial agents” (Eur J Med Chem, 2022)
Converted amounts (≈) assume the structure as drawn. The source made the active and inactive calls. No cut-off for these calls is given here.

Columns and labels:
Cell membrane [1] = assay: Induction of cell membrane destruction in Acinetobacter baumannii assessed as reduction in metabolic activity; format: subcellular; conditions: DDE = dose-dependent effect
Calf thymus DNA [2] = assay: Binding affinity to calf thymus DNA assessed as reduction in fluorescence intensity of acridine orange-DNA complex formation by measuring […] by competitive binding assay; format: nucleic-acid assay; conditions: Bos taurus; DDE = dose-dependent effect
Acinetobacter baumannii [3] = assay: Antibacterial activity against Acinetobacter baumannii assessed as inhibition of bacterial growth; format: functional
Pseudomonas aeruginosa [4] = assay: Antibacterial activity against Pseudomonas aeruginosa assessed as inhibition of bacterial growth; format: functional
Staphylococcus aureus [5] = assay: Antibacterial activity against Staphylococcus aureus ATCC 25923 assessed as inhibition of bacterial growth; format: functional
Cell membrane [6] = assay: Induction of inner membrane permeabilization in Acinetobacter baumannii assessed as increase in fluorescence intensity by propidium iodide staining based fluorescence analysis; format: subcellular; conditions: DDE = dose-dependent effect
Pseudomonas aeruginosa [7] = assay: Antibacterial activity against Pseudomonas aeruginosa ATCC 27853 assessed as inhibition of bacterial growth; format: functional
Staphylococcus aureus [8] = assay: Antibacterial activity against methicillin resistant Staphylococcus aureus N315 assessed as inhibition of bacterial growth; format: functional
Acinetobacter baumannii [9] = assay: Induction of ROS production in Acinetobacter baumannii by DCFH-DA staining based fluorescence analysis; format: functional; conditions: DDE = dose-dependent effect
Calf thymus DNA [10] = assay: Binding affinity to calf thymus DNA assessed as hypochromic shift by UV-vis spectrophotometric analysis; format: nucleic-acid assay; conditions: Bos taurus
Acinetobacter baumannii [11] = assay: Induction of ROS production in Acinetobacter baumannii assessed as fold change at 16 times MIC by DCFH-DA staining based fluorescence analysis; format: functional
[12] = Hemolytic activity in human RBC assessed as hemolysis rate at 64 times MIC relative to control; format: toxicity, cell-based, Erythrocyte; conditions: red blood cells (erythrocytes), read-out: Activity
Staphylococcus aureus [13] = assay: Antibacterial activity against Staphylococcus aureus assessed as inhibition of bacterial growth; format: functional
Acinetobacter baumannii [14] = assay: Anti- biofilm activity against Acinetobacter baumannii assessed as decrease in biofilm viability at 2 ug/ml by resazurin dye based assay relative to control; format: functional; conditions: dose 2 µg/ml
Cell membrane [15] = assay: Induction of cell membrane damage in Acinetobacter baumannii assessed as increase in nucleic acid leakage by measuring fold increase in absorbance at 8 times MIC by spectrophotometry; format: subcellular
Enterococcus faecalis = assay: Antibacterial activity against Enterococcus faecalis assessed as inhibition of bacterial growth; format: functional
Cell membrane [16] = assay: Induction of cell membrane depolarization in Acinetobacter baumannii assessed as increase in fluorescence intensity at MIC by DiSC35 dye-based fluorescence assay; format: subcellular; conditions: time <= 60.0 min, TDE = time-dependent effect
Cell membrane [17] = assay: Induction of cell membrane damage in Acinetobacter baumannii assessed as increase in protein leakage; format: subcellular
[18] = Cytotoxicity against human liver cancer cells assessed as cell viability at 10 ug/ml by CCK8 method relative to control; format: functional; conditions: read-out: Activity
Escherichia coli [19] = assay: Antibacterial activity against Escherichia coli ATCC 25922 assessed as inhibition of bacterial growth; format: functional
Cell membrane [20] = assay: Induction of outer membrane permeabilization in Acinetobacter baumannii assessed as increase in fluorescence intensity at MIC by NPN-dye based fluorescence assay; format: subcellular; conditions: time <= 120.0 min
Cell membrane [21] = assay: Induction of inner membrane permeabilization in Acinetobacter baumannii assessed as increase in red fluorescence intensity by fluorescence microscopic analysis
Staphylococcus aureus [22] = assay: Antibacterial activity against Staphylococcus aureus ATCC 29213 assessed as inhibition of bacterial growth; format: functional
[23] = Cytotoxicity against human endothelial cells assessed as cell viability at 10 ug/ml by CCK8 method relative to control; format: toxicity, cell-based; conditions: at 10 µg/mL, read-out: Activity
Klebsiella pneumoniae = assay: Antibacterial activity against Klebsiella pneumoniae assessed as inhibition of bacterial growth; format: functional
Acinetobacter baumannii [24] = assay: Antibacterial activity against Acinetobacter baumannii assessed fold increase in malondialdehyde production measured at upto 16 times MIC; format: functional
Escherichia coli [25] = assay: Antibacterial activity against Escherichia coli assessed as inhibition of bacterial growth; format: functional
Acinetobacter baumannii [26] = assay: Antibacterial activity against Acinetobacter baumannii assessed as reduction in GSH activity by Ellman's method; format: functional, organism-based; conditions: DDE = dose-dependent effect

SMILES	MIC (Acinetobacter baumannii [3]) [µg/mL]	MIC (Pseudomonas aeruginosa [4]) [µg/mL]	MIC (Staphylococcus aureus [5]) [µg/mL]	MIC (Pseudomonas aeruginosa [7]) [µg/mL]	MIC (Staphylococcus aureus [8]) [µg/mL]	MIC (Staphylococcus aureus [13]) [µg/mL]	MIC (Enterococcus faecalis) [µg/mL]	MIC (Escherichia coli [19]) [µg/mL]	MIC (Staphylococcus aureus [22]) [µg/mL]	MIC (Klebsiella pneumoniae) [µg/mL]	MIC (Escherichia coli [25]) [µg/mL]	also measured
Cc1cc(=O)oc2cc(/N=C3/S/C(=C\c4c[nH]c5ccccc45)C(=O)N3CCO)ccc12	0.25 (≈ 0.561 µM)	256 (≈ 575 µM)	0.25 (≈ 0.561 µM)	32 (≈ 71.8 µM)	0.25 (≈ 0.561 µM)	2 (≈ 4.49 µM)	0.25 (≈ 0.561 µM)	1 (≈ 2.24 µM)	0.25 (≈ 0.561 µM)	0.5 (≈ 1.12 µM)	0.25 (≈ 0.561 µM)	Activity (Cell membrane [1]): Dde; Activity (Calf thymus DNA [2]): Dde; Activity (Cell membrane [6]): Dde; Activity (Acinetobacter baumannii [9]): Dde; Activity (Calf thymus DNA [10]): Active; fold change (FC) (Acinetobacter baumannii [11]): 5.3; hemolysis at 64 times MIC [12]: < 5%; Activity (Acinetobacter baumannii [14]): 45%; fold change (FC) (Cell membrane [15]): 3.8; Activity (Cell membrane [16]): Tde; Activity (Cell membrane [17]): Active; viability at 10 µg/mL [18]: 47%; Activity (Cell membrane [20]): Active; Activity (Cell membrane [21]): Active; viability at 10 ug/ml [23]: 75%; fold change (FC) (Acinetobacter baumannii [24]): 3; Activity (Acinetobacter baumannii [26]): Dde
CCn1cc(/C=C2\S/C(=N/c3ccc4c(C)cc(=O)oc4c3)N(CCO)C2=O)c2ccccc21	64 (≈ 135 µM)	64 (≈ 135 µM)	64 (≈ 135 µM)	32 (≈ 67.6 µM)	128 (≈ 270 µM)	128 (≈ 270 µM)	128 (≈ 270 µM)	128 (≈ 270 µM)	128 (≈ 270 µM)	64 (≈ 135 µM)	64 (≈ 135 µM)	–
Cc1cc(=O)oc2cc(/N=C3/S/C(=C\c4ccc(F)cc4)C(=O)N3CCO)ccc12	4 (≈ 9.42 µM)	32 (≈ 75.4 µM)	128 (≈ 302 µM)	64 (≈ 151 µM)	64 (≈ 151 µM)	64 (≈ 151 µM)	32 (≈ 75.4 µM)	128 (≈ 302 µM)	16 (≈ 37.7 µM)	256 (≈ 603 µM)	128 (≈ 302 µM)	–
Cc1cc(=O)oc2cc(/N=C3/S/C(=C\c4ccc(F)cc4F)C(=O)N3CCO)ccc12	64 (≈ 145 µM)	64 (≈ 145 µM)	4 (≈ 9.04 µM)	32 (≈ 72.3 µM)	64 (≈ 145 µM)	32 (≈ 72.3 µM)	2 (≈ 4.52 µM)	128 (≈ 289 µM)	32 (≈ 72.3 µM)	64 (≈ 145 µM)	64 (≈ 145 µM)	–
